According to US10294202B2, “Pyrrolidinones as herbicides” (FMC Corporation, priority 2013, dated 2019):

Tests used:
[1] = test system: sandbur; experiment: Test E preemergence herbicide test; assay type: in vivo, Cenchrus echinatus; set-up: key: 0 = no effect, 100 = complete control
Method in brief: (§1)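 Seeds sown in silt loam soil received preemergence treatment with compound in a non-phytotoxic solvent mixture containing surfactant. After 21 days in the greenhouse, plants were visually rated against untreated controls on a 0 (no effect) to 100 (complete control) scale.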

[2] = test system: bermudagrass; experiment: Test C pre-/postemergence herbicide test; assay type: in vivo, Cynodon dactylon
Method in brief: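 Plants grown and held in a greenhouse for 13 to 15 days post-spray, then rated 0–100 by visual comparison with controls. Pre treatments targeted seeds in loam and sand; post treatments targeted 1- to 4-leaf plants in peat-based potting medium.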

[3] = test system: panicum, fall; experiment: Test E preemergence herbicide test; assay type: in vivo, Panicum dichotomiflorum; set-up: key: 0 = no effect, 100 = complete control
Method in brief: as §1

[4] = test system: field poppy; experiment: Test D pre-/postemergence herbicide test; assay type: in vivo, Papaver rhoeas; conditions: Postemergence, Field Poppy, scale 0 to 100
Method in brief: (§2)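 Seeds sown in silt loam were sprayed preemergence with test chemicals in a non-phytotoxic solvent mixture with surfactant. Postemergence plants grown in peat/vermiculite medium were treated at 2–18 cm (1- to 4-leaf stage). After 7 to 21 days in a controlled environment, injury was rated visually versus controls, 0 (no effect) to 100 (complete control).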

[5] = test system: buckwheat, wild; experiment: Test D pre-/postemergence herbicide test; assay type: in vivo, Polygonum convolvulus; conditions: Postemergence, Buckwheat, Wild, scale 0 to 100
Method in brief: as §2

[6] = test system: wild poinsettia; experiment: Test E preemergence herbicide test; assay type: in vivo, Euphorbia heterophylla; set-up: key: 0 = no effect, 100 = complete control
Text: Seeds of plant species selected from corn (Zea mays), soybean (Glycine max), velvetleaf (Abutilon theophrasti), lambsquarters (Chenopodium album), wild poinsettia (Euphorbia heterophylla), pigweed, palmer (palmer pigweed, Amaranthus palmeri), waterhemp (common waterhemp, Amaranthus rudis), surinam grass (Brachiaria decumbens), crabgrass, large (large crabgrass, Digitaria sanguinalis), crabgrass, Brazil (Brazilian crabgrass, Digitaria horizontalis), panicum, fall (fall panicum, Panicum dichotomiflorum), foxtail, giant (giant foxtail, Setaria faberii), foxtail, green (green foxtail, Setaria viridis), goosegrass (Eleusine indica), johnsongrass (Sorghum halepense), ragweed (common ragweed, Ambrosia elatior), barnyardgrass (Echinochloa crus-galli), sandbur (southern sandbur, Cenchrus echinatus), arrowleaf […] rhombifolia), ryegrass, Italian (Italian ryegrass, Lolium multiflorum), dayflower, VA (Virginia dayflower, Commelina virginica), field bindweed (Convolvulus arvensis), morningglory (Ipomoea coccinea), nightshade (eastern black nightshade, Solanum ptycanthum), kochia (Kochia scoparia), nutsedge, yellow (yellow nutsedge, Cyperus esculentus), cocklebur (common cocklebur, Xanthium strumarium), smartweed (ladysthumb smartweed, Polygonum Persicaria) and beggarticks (hairy beggarticks, Bidens pilosa), were planted into a silt loam soil and treated preemergence with test chemicals formulated in a non-phytotoxic solvent mixture which included a surfactant. Treated plants and controls were maintained in a greenhouse for 21 days, after which time all species were compared to controls and visually evaluated. Plant response ratings, summarized in Table E, are based on a scale of 0 to 100 where 0 is no effect and 100 is complete control. A dash (-) response means no test result.

O=C1NCC(c2ccc(F)c(F)c2)C1C(=O)Nc1cccc(F)c1F (stereo not drawn) [Compound 17, N-(2,3-difluorophenyl)-4-(3,4-difluorophenyl)-2-oxo-3-pyrrolidinecarboxamide]
Plant response rating, Sandbur ([1]; 16 g ai/ha): 0 | Plant response rating, Sandbur ([1]; 31 g ai/ha): 0 | Plant response rating, Sandbur ([1]; 62 g ai/ha): 50 | Plant response rating, Sandbur ([1]; 125 g ai/ha): 65 | Plant response rating, Sandbur ([1]; 250 g ai/ha): 95 | Plant response rating, Bermudagrass ([2]; Postemergence, 31 g ai/ha, scale 0 (no effect) to 100 (complete control)): 0 | Plant response rating, Bermudagrass ([2]; Postemergence, 62 g ai/ha, scale 0 to 100 (0 no effect, 100 complete control)): 0 | Plant response rating, Bermudagrass ([2]; Postemergence, 125 g ai/ha, scale 0 to 100 (0 no effect, 100 complete control)): 0 | Plant response rating, Bermudagrass ([2]; Postemergence, 250 g ai/ha, scale 0 to 100 (0 no effect, 100 complete control)): 0 | Plant response rating, Bermudagrass ([2]; Preemergence, 62 g ai/ha, scale 0 to 100): 45 | Plant response rating, Bermudagrass ([2]; Preemergence, 125 g ai/ha, scale 0 to 100 (0 no effect, 100 complete control)): 85 | Bermudagrass plant response rating ([2]; Preemergence, 31 g ai/ha, scale 0 to 100 (0 no effect, 100 complete control)): 0 | Plant response rating, Bermudagrass ([2]; Preemergence, 250 g ai/ha, scale 0 to 100 (0 no effect, 100 complete control)): 90 | Plant response rating, Panicum, Fall ([3]; 16 g ai/ha): 0 | Plant response rating, Panicum, Fall ([3]; 31 g ai/ha): 0 | Plant response rating, Panicum, Fall ([3]; 62 g ai/ha): 0 | Plant response rating, Panicum, Fall ([3]; 125 g ai/ha): 0 | Plant response rating, Panicum, Fall ([3]; 250 g ai/ha): 0 | Plant response rating ([4]; 16 g ai/ha): 0 | Plant response rating ([4]; 31 g ai/ha): 0 | Plant response rating ([4]; 62 g ai/ha): 0 | Plant response rating ([4]; 125 g ai/ha): 0 | Plant response rating ([4]; 250 g ai/ha): 0 | Plant response rating ([5]; 16 g ai/ha): 0 | Plant response rating ([5]; 31 g ai/ha): 0 | Plant response rating ([5]; 62 g ai/ha): 0 | Plant response rating ([5]; 125 g ai/ha): 10 | Plant response rating ([5]; 250 g ai/ha): 20 | Plant response rating, Poinsettia, Wild ([6]; 16 g ai/ha): 0 | Plant response rating, Poinsettia, Wild ([6]; 31 g ai/ha): 0 | Plant response rating, Poinsettia, Wild ([6]; 62 g ai/ha): 0 | Plant response rating, Poinsettia, Wild ([6]; 125 g ai/ha): 0 | Plant response rating, Poinsettia, Wild ([6]; 250 g ai/ha): 20
